Experimental data from patent publication US10858355B2, “Inhibitors of phosphatidylinositol 3-kinase gamma” (AstraZeneca AB, priority 2016, dated 2020).

The compounds below were run against recombinant human PI3Kγ (aa144-1102)-6His (Homo sapiens (Human), UniProt P48736) (assay: Test A: Enzymatic Activity Assay for Rec Human PI3Kγ (ADP-Glo)). Details: 20 μM ATP, 80 μM DiC8-PIP2, 1.2 nM PI3Kγ, 15 min pre-incubation, 60 min reaction.
Assay type: biochemical
Protocol: Pharmacological Activity Test A: Enzymatic Activity Assay for Rec Human PI3Kγ
The activity of recombinant human PI3Kγ (aa144-1102)-6His was determined by measuring the ADP level after phosphorylation of DiC8-PIP2 using a commercially available ADP-Glo™ kit from Promega. The assay was carried out in white low volume 384 well plates in a final volume of 14 μl at rt. The assay conditions contained the following: 50 mM Tris buffer pH 7.4, 2.1 mM DTT, 3 mM MgCl2, 0.05% CHAPS, 20 μM ATP, 80 μM DiC8-PIP2 and 1.2 nM PI3Kγ. […] Routinely, inhibitors were pre-incubated with 3 μl of PI3Kγ for 15 min prior to the addition of […] substrate mixture for a further 60 min enzyme reaction. The phosphorylation was stopped with the addition of 3 μl ADP-Glo™ reagent (stop solution) followed by a 40 min incubation. Prior to detection 6 μl of ADP-Glo™ Kinase Detection Reagent was added and the plates were read in a micro plate reader using a Luminescence filter.

Sequence of recombinant human PI3Kγ (aa144-1102)-6His (P48736 144-1102): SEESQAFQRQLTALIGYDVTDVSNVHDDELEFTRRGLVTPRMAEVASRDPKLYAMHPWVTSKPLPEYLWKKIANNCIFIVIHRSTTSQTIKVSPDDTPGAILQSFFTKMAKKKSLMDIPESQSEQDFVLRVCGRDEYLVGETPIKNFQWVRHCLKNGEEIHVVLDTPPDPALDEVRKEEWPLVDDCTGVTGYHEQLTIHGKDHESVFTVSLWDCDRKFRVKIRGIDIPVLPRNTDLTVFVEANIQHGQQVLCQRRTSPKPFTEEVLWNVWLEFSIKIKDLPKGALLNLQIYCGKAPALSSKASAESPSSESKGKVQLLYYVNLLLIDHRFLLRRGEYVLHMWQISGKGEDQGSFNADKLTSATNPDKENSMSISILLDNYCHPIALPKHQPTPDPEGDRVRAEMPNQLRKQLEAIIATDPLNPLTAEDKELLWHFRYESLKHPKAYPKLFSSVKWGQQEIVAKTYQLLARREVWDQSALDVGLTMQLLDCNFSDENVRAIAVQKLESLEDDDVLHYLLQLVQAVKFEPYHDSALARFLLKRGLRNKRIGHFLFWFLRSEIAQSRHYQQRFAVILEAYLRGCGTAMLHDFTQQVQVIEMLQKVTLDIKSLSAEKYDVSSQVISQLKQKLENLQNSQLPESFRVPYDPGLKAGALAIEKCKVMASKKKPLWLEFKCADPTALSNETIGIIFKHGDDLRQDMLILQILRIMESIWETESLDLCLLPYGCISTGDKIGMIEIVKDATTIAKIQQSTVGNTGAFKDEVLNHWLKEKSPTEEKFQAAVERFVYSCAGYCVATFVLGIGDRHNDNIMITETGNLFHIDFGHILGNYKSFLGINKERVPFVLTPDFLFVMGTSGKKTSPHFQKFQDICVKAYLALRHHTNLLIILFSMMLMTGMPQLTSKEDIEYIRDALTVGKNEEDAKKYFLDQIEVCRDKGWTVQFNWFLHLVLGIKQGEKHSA

Row | PI3Kγ activity, pIC50 | SMILES
1 | 8.8 | CC(=O)Nc1nc(C)c(-c2cc3c(c(S(C)(=O)=O)c2)C(=O)N(C(C)C)C3)s1 [Example 3, N-{4-Methyl-5-[7-(methylsulfonyl)-1-oxo-2-(propan-2-yl)-2,3-dihydro-1H-isoindol-5-yl]-1,3-thiazol-2-yl}acetamide]
2 | 9.0 | CC(=O)Nc1nc(C)c(-c2cc3c(c(NC(C)=O)c2)C(=O)N([C@@H](C)C2CC2)C3)s1 [Example 5, N-(5-{7-(Acetylamino)-2-[(1S)-1-cyclopropylethyl]-1-oxo-2,3-dihydro-1H-isoindol-5-yl}-4-methyl-1,3-thiazol-2-yl)acetamide]
3 | 9.0 | CC(=O)Nc1nc(C)c(-c2cc3c(c(S(=O)(=O)NC4CC4)c2)C(=O)N([C@@H](C)C2CC2)C3)s1 [Example 14, N-(5-{2-[(1S)-1-Cyclopropylethyl]-7-(cyclopropylsulfamoyl)-1-oxo-2,3-dihydro-1H-isoindol-5-yl}-4-methyl-1,3-thiazol-2-yl)acetamide]
4 | 9.4 | CCNS(=O)(=O)c1cc(-c2sc(NC(C)=O)nc2C)cc2c1C(=O)N([C@@H](C)C1CC1)C2 [Example 15, N-(5-{2-[(1S)-1-Cyclopropylethyl]-7-(ethylsulfamoyl)-1-oxo-2,3-dihydro-1H-isoindol-5-yl}-4-methyl-1,3-thiazol-2-yl)acetamide]
5 | 9.2 | CC(=O)Nc1nc(C)c(-c2cc3c(c(S(=O)(=O)NC4COC4)c2)C(=O)N([C@@H](C)C2CC2)C3)s1 [Example 16, N-(5-{2-[(1S)-1-Cyclopropylethyl]-7-(oxetan-3-ylsulfamoyl)-1-oxo-2,3-dihydro-1H-isoindol-5-yl}-4-methyl-1,3-thiazol-2-yl)acetamide]
6 | 9.2 | CC(=O)Nc1nc(C)c(-c2cc3c(c(S(=O)(=O)NCC(F)(F)F)c2)C(=O)N([C@@H](C)C2CC2)C3)s1 [Example 20, N-(5-{2-[(1S)-1-Cyclopropylethyl]-1-oxo-7-[(2,2,2-trifluoroethyl)sulfamoyl]-2,3-dihydro-1H-isoindol-5-yl}-4-methyl-1,3-thiazol-2-yl)acetamide]
7 | 8.9 | CC(=O)Nc1nc(C)c(-c2cc3c(c(S(N)(=O)=O)c2)C(=O)N(C(C)C)C3)s1 [Example 21, N-{4-Methyl-5-[1-oxo-2-(propan-2-yl)-7-sulfamoyl-2,3-dihydro-1H-isoindol-5-yl]-1,3-thiazol-2-yl}acetamide]
8 | 9.1 | CC(=O)Nc1nc(C)c(-c2cc3c(c(NS(=O)(=O)CC4CC4)c2)C(=O)N([C@@H](C)C2CC2)C3)s1 [Example 28, N-[5-(2-[(1S)-1-Cyclopropylethyl]-7-{[(cyclopropylmethyl)sulfonyl]amino}-1-oxo-2,3-dihydro-1H-isoindol-5-yl)-4-methyl-1,3-thiazol-2-yl]acetamide]
9 | 9.0 | CNS(=O)(=O)c1cc(-c2sc(NC(C)=O)nc2C)cc2c1C(=O)N(C(C)(C)C1CC1)C2 [Example 32, N-{5-[2-(2-Cyclopropylpropan-2-yl)-7-(methylsulfamoyl)-1-oxo-2,3-dihydro-1H-isoindol-5-yl]-4-methyl-1,3-thiazol-2-yl}acetamide]

Continued, compound first:

Row | SMILES | PI3Kγ activity, pIC50
10 | CC(=O)Nc1ncc(-c2cc3c(c(S(C)(=O)=O)c2)C(=O)N([C@@H](C)C2CC2)C3)s1 [Example 2, N-(5-{2-[(1S)-1-Cyclopropylethyl]-7-(methylsulfonyl)-1-oxo-2,3-dihydro-1H-isoindol-5-yl}-1,3-thiazol-2-yl)acetamide] | 9.0
11 | CC(=O)Nc1nc(C)c(-c2cc3c(c(S(=O)(=O)N(C)C)c2)C(=O)N([C@@H](C)C2CC2)C3)s1 [Example 7, N-(5-{2-[(1S)-1-Cyclopropylethyl]-7-(dimethylsulfamoyl)-1-oxo-2,3-dihydro-1H-isoindol-5-yl}-4-methyl-1,3-thiazol-2-yl)acetamide] | 9.1
12 | CNS(=O)(=O)c1cc(-c2cnc(NC(C)=O)s2)cc2c1C(=O)N([C@@H](C)C1CC1)C2 [Example 8, N-(5-{2-[(1S)-1-Cyclopropylethyl]-7-(methylsulfamoyl)-1-oxo-2,3-dihydro-1H-isoindol-5-yl}-1,3-thiazol-2-yl)acetamide] | 9.0
13 | CC(=O)Nc1nc(C)c(-c2cc3c(c(S(=O)(=O)NC4CCC4)c2)C(=O)N([C@@H](C)C2CC2)C3)s1 [Example 10, N-(5-{7-(Cyclobutylsulfamoyl)-2-[(1S)-1-cyclopropylethyl]-1-oxo-2,3-dihydro-1H-isoindol-5-yl}-4-methyl-1,3-thiazol-2-yl)acetamide] | 8.9
14 | CNS(=O)(=O)c1cc(-c2sc(NC(C)=O)nc2C)cc2c1C(=O)N(C(C)C)C2 [Example 11, N-{4-Methyl-5-[7-(methylsulfamoyl)-1-oxo-2-(propan-2-yl)-2,3-dihydro-1H-isoindol-5-yl]-1,3-thiazol-2-yl}acetamide] | 8.8
15 | CC(=O)Nc1nc(C)c(-c2cc3c(c(S(=O)(=O)NCC4CC4)c2)C(=O)N([C@@H](C)C2CC2)C3)s1 [Example 13, N-(5-{2-[(1S)-1-Cyclopropylethyl]-7-[(cyclopropylmethyl)sulfamoyl]-1-oxo-2,3-dihydro-1H-isoindol-5-yl}-4-methyl-1,3-thiazol-2-yl)acetamide] | 9.0
16 | CC(=O)Nc1nc(C)c(-c2cc3c(c(S(=O)(=O)NC4CC(F)(F)C4)c2)C(=O)N([C@@H](C)C2CC2)C3)s1 [Example 17, N-(5-{2-[(1S)-1-Cyclopropylethyl]-7-[(3,3-difluorocyclobutyl)sulfamoyl]-1-oxo-2,3-dihydro-1H-isoindol-5-yl}-4-methyl-1,3-thiazol-2-yl)acetamide] | 8.9
17 | CC(=O)Nc1nc(C)c(-c2cc3c(c(NS(=O)(=O)C4CC4)c2)C(=O)N([C@@H](C)C2CC2)C3)s1 [Example 23, N-(5-{2-[(1S)-1-Cyclopropylethyl]-7-[(cyclopropylsulfonyl)amino]-1-oxo-2,3-dihydro-1H-isoindol-5-yl}-4-methyl-1,3-thiazol-2-yl)acetamide] | 9.2
18 | CCCS(=O)(=O)Nc1cc(-c2sc(NC(C)=O)nc2C)cc2c1C(=O)N([C@@H](C)C1CC1)C2 [Example 24, N-(5-{2-[(1S)-1-Cyclopropylethyl]-1-oxo-7-[(propylsulfonyl)amino]-2,3-dihydro-1H-isoindol-5-yl}-4-methyl-1,3-thiazol-2-yl)acetamide] | 9.0
19 | CCS(=O)(=O)Nc1cc(-c2sc(NC(C)=O)nc2C)cc2c1C(=O)N([C@@H](C)C1CC1)C2 [Example 25, N-(5-{2-[(1S)-1-Cyclopropylethyl]-7-[(ethylsulfonyl)amino]-1-oxo-2,3-dihydro-1H-isoindol-5-yl}-4-methyl-1,3-thiazol-2-yl)acetamide] | 9.1
20 | CC(=O)Nc1nc(C)c(-c2cc3c(c(NS(=O)(=O)C(C)(C)C)c2)C(=O)N([C@@H](C)C2CC2)C3)s1 [Example 26, N-(5-{7-[(tert-Butylsulfonyl)amino]-2-[(1S)-1-cyclopropylethyl]-1-oxo-2,3-dihydro-1H-isoindol-5-yl}-4-methyl-1,3-thiazol-2-yl)acetamide] | 9.0
21 | CC(=O)Nc1nc(C)c(-c2cc3c(c(NS(=O)(=O)c4cn(C)nc4C)c2)C(=O)N([C@@H](C)C2CC2)C3)s1 [Example 29, N-[5-(2-[(1S)-1-Cyclopropylethyl]-7-{[(1,3-dimethyl-1H-pyrazol-4-yl)sulfonyl]amino}-1-oxo-2,3-dihydro-1H-isoindol-5-yl)-4-methyl-1,3-thiazol-2-yl]acetamide] | 8.9
22 | CNS(=O)(=O)c1cc(-c2cnc3c(N)nccn23)cc2c1C(=O)N([C@@H](C)C1CC1)C2 [Example 31, 6-(8-Aminoimidazo[1,2-a]pyrazin-3-yl)-2-[(1S)-1-cyclopropylethyl]-N-methyl-3-oxo-2,3-dihydro-1H-isoindole-4-sulfonamide] | 8.7

Same assay, conditions: 20 μM ATP, 80 μM DiC8-PIP2, 1.2 nM PI3Kγ, 15 min pre-incubation, 60 min reaction; read-out: PI3Kγ activity, pIC50 (converted)

Row | IC50 | SMILES
23 | 1.26 nM | CC(=O)Nc1ncc(-c2cc3c(c(S(N)(=O)=O)c2)C(=O)N([C@@H](C)C2CC2)C3)s1 [Example 12, N-(5-{2-[(1S)-1-Cyclopropylethyl]-1-oxo-7-sulfamoyl-2,3-dihydro-1H-isoindol-5-yl}-1,3-thiazol-2-yl)acetamide]
24 | 0.398 nM | CC(=O)Nc1nc(C)c(-c2cc3c(c(S(=O)(=O)NCC4(CF)CC4)c2)C(=O)N([C@@H](C)C2CC2)C3)s1 [Example 19, N-(5-{2-[(1S)-1-Cyclopropylethyl]-7-({[1-(fluoromethyl)cyclopropyl]methyl}sulfamoyl)-1-oxo-2,3-dihydro-1H-isoindol-5-yl}-4-methyl-1,3-thiazol-2-yl)acetamide]
25 | 0.794 nM | CC(=O)Nc1ncc(-c2cc3c(c(NS(C)(=O)=O)c2)C(=O)N([C@@H](C)C2CC2)C3)s1 [Example 22, N-(5-{2-[(1S)-1-Cyclopropylethyl]-7-[(methylsulfonyl)amino]-1-oxo-2,3-dihydro-1H-isoindol-5-yl}-1,3-thiazol-2-yl)acetamide]
26 | 1.26 nM | CNS(=O)(=O)c1cc(-c2sc(NC(C)=O)nc2Cl)cc2c1C(=O)N([C@@H](C)C1CC1)C2 [Example 30, N-(4-Chloro-5-{2-[(1S)-1-cyclopropylethyl]-7-(methylsulfamoyl)-1-oxo-2,3-dihydro-1H-isoindol-5-yl}-1,3-thiazol-2-yl)acetamide]
